In patent US6358990B1, “Method for treating Alzheimer's disease” (Boehringer Mannheim Pharmaceuticals Corp., priority 1997, dated 2002):

Test system: IMR32 human neuroblastoma cells
Experiment: Inhibition of the formation of toxic aggregates of beta-amyloid 1-40 peptide (MTT reduction in IMR32 cells)
Format: cell-based
Experimental: Determination of the Inhibition of the Formation of Toxic Aggregates of Beta-Amyloid 1-40 Peptide
Beta-amyloid (1-40) peptide from Bachem UK was dissolved in 0.1% acetic acid at 2 mg/ml and further diluted to 55 ug/ml in phosphate buffered saline (Sigma P4417) containing 0.02% Tween 20 (PBS-Tween). Candidate inhibitors were dissolved in DMSO at 10 mg/ml and further diluted in PBS-Tween. For each candidate inhibitor, 45 ul of 55 ug/ml peptide solution was incubated with 5 ul of appropriately diluted inhibitor overnight at 37° C. in Linbro Titertek EIA II shallow well plates (ICN, EIA II Microplates, cat no. 76-181-04). Plates were sealed with Dynatech Labs (cat # 001-010 3501) plate sealers.
MTT (3(4,5-dimethylthiazol-2-yl)-2,5-diphenyl tetrazolium bromide—Sigma) is a metabolic dye taken up by the mitochondria of viable cells and metabolised, yielding a blue formazan crystalline product. […]
For the assessment of toxicity, IMR32 human neuroblastoma cells (ECACC, Porton Down, UK) were plated at 6×10^4 cells/cm^2 in a 96 well microtitre plate (Nunc) in a volume of 100 ul growth medium (DMEM:Hams F12 1:1) per well and incubated for 2 h (CO2 incubator, 37° C.). […] Plates were read at 590 nm and inhibition of toxicity assessed as the difference in OD reading between cells in the presence and absence of candidate inhibitors. […]

## COc1ccccc1OCCNCC(O)COc1cccc2[nH]c3ccccc3c12 (centres unmarked) [carvedilol]
50 ug/ml beta-amyloid 1-40 incubated overnight with 50 ug/ml carvedilol, cells challenged with 0 to 10 ng/ml beta-amyloid 1-40
  shift of the beta-amyloid 1-40 concentration-response curve (decrease in MTT reduction): marked shift to the right
50 ug/ml carvedilol during the aggregation step, 0.1 to 1 ng/ml of peptide on IMR32 cells
  decrease in MTT reduction: no decrease in MTT reduction was observed
